# Where two headings read alike, the source gives them in different places.
# Tests used:
# [1] = system: ovarian cancer; settings: patients, phase I/II study; cited from earlier work
# [2] = system: KB tumor cells (FR+)
# Experimental: Nude mice bearing KB-tumors were used for this study.
# The NODAGA-LINKER-FOLATE derivative was labeled with ^67Ga by incubation at RT with 37 MBq of ^67GaCl3 in HEPES buffer. […] It was diluted with 0.9% NaCl at a concentration of 4 nmol/ml and this solution was injected to the mice (100 μl/0.4 nmol/mouse).
# One week before the tumor cell inoculation all mice were put under a folate low diet (SAFE company, semi-synthetic product with 50 μg/kg of folate) until the end of the study.
# At D0, the tumor inoculation was performed as follow: One million (10^6) of KB tumor cells (FR+) resuspended at 1×10^7 cells/ml in sterile PBS 0.01M, pH 7.4, were subcutaneously inoculated in the right flank of the nude mice in a volume of 100 μl. The tumors were allowed to grow for 8-9 days. For the in vivo evaluation the mice were grouped in groups of 3 mice per group.
# At D9 biodistribution studies were performed for the ^67Ga-NODAGA-LINKER-FOLATE (compound 2′ complexed by Ga67) in groups of mice as follow: • 3 groups: injection with ^67Ga-NODAGA-LINKER-FOLATE (compound 2′ complexed by Ga67) (0.4 nmol/10 μCi/100 μl/mouse) • 1 group: injection of Folic acid (40 nmol/100 μl/mouse) 5 min before the injection of ^67Ga-NODAGA-LINKER-FOLATE (compound 2′ complexed by Ga67) • 1 group: injection of Alimta (400 μg/100 μl/mouse) 1 h before the injection of ^67Ga-NODAGA-LINKER-FOLATE (compound 2′ complexed by Ga67) • Time points: 2 h, 4 h, 4 h (blocking with FA), 4 h (kidney blocking with Alimta), 24 h p.i. Results
# [3] = system: OVCAR-3 tumors; experiment: Biodistribution and PET/CT imaging in mice model bearing OVCAR-3 tumor; type: in vivo, SCID mice
# Experimental: Similar protocol was used for OVCAR-3 tumor models.
# For the kidney blocking the antifolate Alimta, at a concentration of 4 mg/ml in PBS pH 7.4 was used.
# For the Folate Receptors blocking Folic acid in 100-fold excess (400 nmol/ml) in PBS pH 7.4 was used.
# [4] = system: KB tumor cells (FR+); experiment: Biodistribution of NODAGA-LINKER-FOLATE-Ga68 in nude mice bearing KB-tumors; type: in vivo; settings: for Ratio tumor:blood / Ratio tumor:bone / Ratio tumor:kidney / Ratio tumor:liver / Ratio tumor:muscle / Ratio tumor:pancreas / Ratio tumor:parotid: 1 h post-injection
# Experimental: The NODAGA-LINKER-FOLATE derivative was labeled with ^68Ga using the Modular-Lab automatic system by Eckert & Ziegler.
# NODAGA-LINKER-FOLATE-Ga68 compound (compound 2) was obtained in radiochemical purity preferably >92 to >98%.
# At D0, the tumor inoculation was performed as follow: One million (10^6) of KB tumor cells (FR+) resuspended at 1×10^7 cells/ml in sterile PBS 0.01M, pH 7.4, were subcutaneously inoculated in the right flank of the nude mice in a volume of 100 μl.
# At D8 biodistribution studies and PET/CT images were performed for NODAGA-folate-Ga68 (compound 2) in 2 groups of mice as follow: • 1 group: injection with NODAGA-LINKER-FOLATE-Ga68 (compound 2) (0.4 nmol/2 MBq/100 μl/mouse) • 1 group: injection of Alimta (400 μg/100 μl/mouse) 1 h before the injection of NODAGA-LINKER-FOLATE-Ga68 (compound 2) • Time point: 1 h p.i.
# [5] = Parotid gland uptake in normal mice without folate-free diet; type: in vivo; settings: no folate-free diet
# [6] = 4 h Alimta pre-injection (400 μg/mouse, 1 h)
# [7] = 4 h blocking with Folic acid (100-fold excess, 5 min pre-injection)
# [8] = Group 1: Alimta 400 μg/mouse 1 h pre-injection
smiles,measurement,setting,value
Nc1nc2ncc(CNc3ccc(C(=O)N[C@@H](CCC(=O)NCCNC(=O)CN(CCN(CCN(CC(=O)[O-])CC(=O)[O-])CC(=O)[O-])CC(=O)[O-])C(=O)O)cc3)nc2c(=O)[nH]1.[111In] [111In-DTPA-folate],Target-tissue uptake and non target-tissue clearance,[1],rapid target-tissue uptake and non target-tissue clearance
Nc1nc2ncc(CNc3ccc(C(=O)N[C@@H](CCC(=O)NCCNC(=O)CCC(C(=O)[O-])N4CCN(CC(=O)[O-])CCN(CC(=O)[O-])CC4)C(=O)O)cc3)nc2c(=O)[nH]1.[67Ga+3] (some centres unmarked) [NODAGA-LINKER-FOLATE-Ga67],"Biodistribution, Parotid gland",[2]; 2 h,9.10 ± 3.39
same,"Biodistribution, adrenal",[2]; 2 h,3.09 ± 0.52
same,"Biodistribution, blood",[2]; 2 h,0.09 ± 0.02
same,"Biodistribution, intestine",[2]; 2 h,0.50 ± 0.12
same,"Biodistribution, kidney",[2]; 2 h,142.14 ± 15.46
same,"Biodistribution, liver",[2]; 2 h,1.38 ± 0.50
same,"Biodistribution, lung",[2]; 2 h,1.32 ± 0.15
same,"Biodistribution, muscle",[2]; 2 h,1.49 ± 0.18
same,"Biodistribution, pancreas",[2]; 2 h,2.91 ± 0.08
same,"Biodistribution, pituitary",[2]; 2 h,0.53 ± 0.24
same,"Biodistribution, spleen",[2]; 2 h,0.48 ± 0.11
same,"Biodistribution, stomach",[2]; 2 h,1.58 ± 0.12
same,"Biodistribution, Parotid gland",[2]; 4 h,8.58 ± 2.33
same,"Biodistribution, adrenal",[2]; 4 h,2.80 ± 0.10
same,"Biodistribution, blood",[2]; 4 h,0.06 ± 0.01
same,"Biodistribution, intestine",[2]; 4 h,0.43 ± 0.16
same,"Biodistribution, kidney",[2]; 4 h,130.31 ± 14.65
same,"Biodistribution, liver",[2]; 4 h,1.07 ± 0.18
same,"Biodistribution, lung",[2]; 4 h,1.36 ± 0.37
same,"Biodistribution, muscle",[2]; 4 h,2.12 ± 0.31
same,"Biodistribution, pancreas",[2]; 4 h,2.92 ± 0.11
same,"Biodistribution, pituitary",[2]; 4 h,0.79 ± 0.74
same,"Biodistribution, spleen",[2]; 4 h,0.46 ± 0.10
same,"Biodistribution, stomach",[2]; 4 h,1.47 ± 0.08
same,"Biodistribution, Parotid gland",[2]; [6],6.10 ± 2.09
same,"Biodistribution, adrenal",[2]; [6],1.75 ± 0.23
same,"Biodistribution, blood",[2]; [6],0.04 ± 0.01
same,"Biodistribution, intestine",[2]; [6],0.50 ± 0.37
same,"Biodistribution, kidney",[2]; [6],19.13 ± 6.66
same,"Biodistribution, liver",[2]; [6],0.88 ± 0.26
same,"Biodistribution, lung",[2]; [6],0.68 ± 0.18
same,"Biodistribution, muscle",[2]; [6],1.26 ± 0.38
same,"Biodistribution, pancreas",[2]; [6],2.20 ± 0.69
same,"Biodistribution, pituitary",[2]; [6],0.59 ± 0.41
same,"Biodistribution, spleen",[2]; [6],0.31 ± 0.13
same,"Biodistribution, stomach",[2]; [6],0.84 ± 0.31
same,"Biodistribution, Parotid gland",[2]; [7],0.18 ± 0.06
same,"Biodistribution, adrenal",[2]; [7],0.02 ± 0.01
same,"Biodistribution, blood",[2]; [7],0.00 ± 0.00
same,"Biodistribution, intestine",[2]; [7],0.08 ± 0.07
same,"Biodistribution, kidney",[2]; [7],6.49 ± 1.03
same,"Biodistribution, liver",[2]; [7],0.06 ± 0.00
same,"Biodistribution, lung",[2]; [7],0.06 ± 0.00
same,"Biodistribution, muscle",[2]; [7],0.03 ± 0.00
same,"Biodistribution, pancreas",[2]; [7],0.05 ± 0.00
same,"Biodistribution, pituitary",[2]; [7],−0.02 ± 0.01
same,"Biodistribution, spleen",[2]; [7],0.04 ± 0.01
same,"Biodistribution, stomach",[2]; [7],0.09 ± 0.06
same,"Biodistribution, Parotid gland",[2]; 24 h,5.57 ± 0.82
same,"Biodistribution, adrenal",[2]; 24 h,5.04 ± 5.96
same,"Biodistribution, blood",[2]; 24 h,0.04 ± 0.02
same,"Biodistribution, intestine",[2]; 24 h,0.37 ± 0.13
same,"Biodistribution, kidney",[2]; 24 h,97.62 ± 11.59
same,"Biodistribution, liver",[2]; 24 h,0.87 ± 0.16
same,"Biodistribution, lung",[2]; 24 h,0.94 ± 0.31
same,"Biodistribution, muscle",[2]; 24 h,1.14 ± 0.01
same,"Biodistribution, pancreas",[2]; 24 h,2.37 ± 0.17
same,"Biodistribution, pituitary",[2]; 24 h,0.41 ± 0.39
same,"Biodistribution, spleen",[2]; 24 h,0.37 ± 0.13
same,"Biodistribution, stomach",[2]; 24 h,1.01 ± 0.10
same,Time of maximum tumor uptake,[2]; KB-tumor bearing nude mice,2 h p.i.
same,Tumor uptake,[2]; at 24 h p.i.,remains high
same,Specificity of tumor uptake,[2]; blocking experiment with folic acid,specific
same,Kidney uptake,[2]; with the use of Alimta,significantly reduced
same,Tumor uptake,[2]; with the use of Alimta,remained the same
"Nc1nc2ncc(CNc3ccc(C(=O)N[C@@H](CCC(=O)NCCNC(=O)CCC(C(=O)O)N4CCN(CC(=O)O)CCN(CC(=O)O)CC4)C(=O)O)cc3)nc2c(=O)[nH]1 (some centres unmarked) [NODAGA-LINKER-FOLATE-Ga68, folate-NODAGA-Ga68, metal not drawn]",PET/CT images: background,[3]; 1 h post injection,negligible background
same,PET/CT images: kidneys,[3]; 1 h post injection,high uptake in the kidneys
same,PET/CT images: tumors,[3]; 1 h post injection,clear visualization of the tumors
same,Quality of PET/CT images,"[3]; mouse, in vivo",Very satisfying
same,Ratio tumor:blood,[4]; [8],49.33
same,Ratio tumor:bone,[4]; [8],20.96
same,Ratio tumor:kidney,[4]; [8],0.69
same,Ratio tumor:liver,[4]; [8],10.49
same,Ratio tumor:muscle,[4]; [8],13.32
same,Ratio tumor:pancreas,[4]; [8],9.30
same,Ratio tumor:parotid,[4]; [8],2.63
same,Ratio tumor:blood,[4]; Group 2: no Alimta,64.85
same,Ratio tumor:bone,[4]; Group 2: no Alimta,28.11
same,Ratio tumor:kidney,[4]; Group 2: no Alimta,0.17
same,Ratio tumor:liver,[4]; Group 2: no Alimta,6.64
same,Ratio tumor:muscle,[4]; Group 2: no Alimta,9.95
same,Ratio tumor:pancreas,[4]; Group 2: no Alimta,6.89
same,Ratio tumor:parotid,[4]; Group 2: no Alimta,1.72
same,Uptake in the parotid gland,[4]; KB-tumor mice under folate-free diet,High uptake
same,High uptake in the parotid gland,[5],This was not the case

# Reference: patent publication US8986650B2, “Complex folate-NOTA-Ga68” (Guerbet, priority 2005, dated 2015)
